From patent publication US8399676B2, “Piperidine derivatives” (Hoffman-La Roche Inc., priority 2009, dated 2013) come the findings set out here.

The structures appear in SMILES notation.

This assay addresses T1, human HSL (Homo sapiens, UniProt Q05469).
T1 construct: generate a full length human HSL ORF with a 3′-His6 tag; His6 (C); made in house; host or cells: High 5 insect cells (baculovirus, pFast-BAC)
T1 sequence (Q05469 1-1076): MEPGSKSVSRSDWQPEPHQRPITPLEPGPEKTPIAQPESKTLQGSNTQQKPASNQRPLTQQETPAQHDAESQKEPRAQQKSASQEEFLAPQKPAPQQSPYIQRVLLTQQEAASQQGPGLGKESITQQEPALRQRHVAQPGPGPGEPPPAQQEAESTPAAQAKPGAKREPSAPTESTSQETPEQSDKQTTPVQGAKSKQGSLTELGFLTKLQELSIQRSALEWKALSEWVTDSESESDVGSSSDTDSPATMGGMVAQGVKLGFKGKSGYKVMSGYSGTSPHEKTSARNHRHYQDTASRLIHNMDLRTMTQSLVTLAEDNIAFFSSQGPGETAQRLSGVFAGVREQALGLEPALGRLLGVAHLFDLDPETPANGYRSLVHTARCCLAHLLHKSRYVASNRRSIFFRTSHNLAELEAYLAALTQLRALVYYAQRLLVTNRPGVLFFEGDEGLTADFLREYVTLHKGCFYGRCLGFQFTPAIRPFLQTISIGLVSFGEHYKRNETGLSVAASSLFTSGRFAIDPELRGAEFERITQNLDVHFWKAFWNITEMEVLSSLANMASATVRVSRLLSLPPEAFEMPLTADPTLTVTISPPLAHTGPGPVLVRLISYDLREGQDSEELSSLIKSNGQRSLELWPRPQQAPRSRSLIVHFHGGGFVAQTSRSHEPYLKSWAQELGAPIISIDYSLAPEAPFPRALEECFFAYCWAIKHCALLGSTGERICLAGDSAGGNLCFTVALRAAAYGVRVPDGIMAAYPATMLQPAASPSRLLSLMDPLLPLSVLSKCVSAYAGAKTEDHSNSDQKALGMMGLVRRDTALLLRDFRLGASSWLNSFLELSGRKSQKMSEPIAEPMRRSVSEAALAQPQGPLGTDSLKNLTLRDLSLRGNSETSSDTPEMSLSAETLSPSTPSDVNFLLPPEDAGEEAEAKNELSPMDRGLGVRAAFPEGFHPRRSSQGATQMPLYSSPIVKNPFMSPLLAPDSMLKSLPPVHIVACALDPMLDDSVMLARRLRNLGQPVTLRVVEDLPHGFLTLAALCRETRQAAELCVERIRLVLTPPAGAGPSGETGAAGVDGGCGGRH
In words: Human Hormone-Sensitive Lipase (HSL) enzyme inhibition assay (colorimetric, DMPT substrate). In kind it is biochemical. The following applies: read-out: HSL hum IC50. An outline of the steps: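 Full-length human HSL carrying a C-terminal His6 tag was expressed in High 5 insect cells via baculovirus and purified on Ni-NTA. Compounds from 3-fold DMSO series were mixed with 1.5 mM DMPT substrate suspension in 100 mM MOPS pH 7.2 with 0.2 mg/ml fatty acid-free BSA, then enzyme (15 ug/ml) was added for 20 minutes at 37 °C. Released thiol was detected with DTNB plus SDS/Triton X-100 (15 minutes, room temperature) at 405 nm.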
For orientation: IC50 means the point on the concentration scale where inhibition reaches its midpoint. As to `CCc1ccc(NC(=O)C2(N)CCN(S(=O)(=O)c3ccccc3)CC2)cc1` [Example 133, 4-Amino-1-benzenesulfonyl-piperidine-4-carboxylic acid (4-ethyl-phenyl)-amide], the IC50 amounted to 90 nM.

For the molecule `CCc1ccc(NC(=O)C2(N)CCN(S(=O)(=O)c3ccccc3F)CC2)cc1` [Example 134, 4-Amino-1-(2-fluoro-benzenesulfonyl)-piperidine-4-carboxylic acid (4-ethyl-phenyl)-amide], the IC50 amounted to 60 nM.

`CCc1ccc(NC(=O)C2(N)CCN(S(=O)(=O)c3ccccc3C)CC2)cc1` [Example 135, 4-Amino-1-(toluene-2-sulfonyl)-piperidine-4-carboxylic acid (4-ethyl-phenyl)-amide]: the IC50 stood at 80 nM.

In the case of `CCc1ccc(NC(=O)C2(N)CCN(S(=O)(=O)c3ccccc3S(C)(=O)=O)CC2)cc1` [Example 136, 4-Amino-1-(2-methanesulfonyl-benzenesulfonyl)-piperidine-4-carboxylic acid (4-ethyl-phenyl)-amide], the concentration for half-maximal inhibition (IC50) is 610 nM.

Regarding `CCc1ccc(NC(=O)C2(N)CCN(S(=O)(=O)c3ccccc3OC)CC2)cc1` [Example 137, 4-Amino-1-(2-methoxy-benzenesulfonyl)-piperidine-4-carboxylic acid (4-ethyl-phenyl)-amide], the IC50 turned out to be 140 nM.

As for `CCc1ccc(NC(=O)C2(N)CCN(S(=O)(=O)c3ccc(OC(F)(F)F)cc3)CC2)cc1` [Example 138, 4-Amino-1-(4-trifluoromethoxy-benzenesulfonyl)-piperidine-4-carboxylic acid (4-ethyl-phenyl)-amide], the IC50 is 310 nM.

As for `CCc1ccc(NC(=O)C2(N)CCN(S(=O)(=O)c3ccc(OC)cc3)CC2)cc1` [Example 139, 4-Amino-1-(4-methoxy-benzenesulfonyl)-piperidine-4-carboxylic acid (4-ethyl-phenyl)-amide], the IC50 was determined as 80 nM.

As for `CCc1ccc(NC(=O)C2(N)CCN(S(=O)(=O)c3ccc(CC)cc3)CC2)cc1` [Example 140, 4-Amino-1-(4-ethyl-benzenesulfonyl)-piperidine-4-carboxylic acid (4-ethyl-phenyl)-amide], the IC50 was 110 nM.

For the molecule `CCCCc1ccc(S(=O)(=O)N2CCC(N)(C(=O)Nc3ccc(CC)cc3)CC2)cc1` [Example 141, 4-Amino-1-(4-butyl-benzenesulfonyl)-piperidine-4-carboxylic acid (4-ethyl-phenyl)-amide], the IC50 worked out at 90 nM.

With `CCc1ccc(NC(=O)C2(N)CCN(S(=O)(=O)c3c(F)cccc3F)CC2)cc1` [Example 142, 4-Amino-1-(2,6-difluoro-benzenesulfonyl)-piperidine-4-carboxylic acid (4-ethyl-phenyl)-amide], the 50% inhibitory concentration (IC50) was 100 nM.

Consider `CCCCS(=O)(=O)N1CCC(N)(C(=O)Nc2ccc(CC)cc2)CC1` [Example 143, 4-Amino-1-(butane-1-sulfonyl)-piperidine-4-carboxylic acid (4-ethyl-phenyl)-amide], for which the IC50 is 530 nM.

For the molecule `CCc1ccc(NC(=O)C2(N)CCN(S(=O)(=O)CC3CCCCC3)CC2)cc1` [Example 144, 4-Amino-1-cyclohexylmethanesulfonyl-piperidine-4-carboxylic acid (4-ethyl-phenyl)-amide], the IC50 came to 140 nM.

On to `CCc1ccc(NC(=O)C2(N)CCN(S(=O)(=O)c3ccccc3C(F)(F)F)CC2)cc1` [Example 145, 4-Amino-1-(2-trifluoromethyl-benzenesulfonyl)-piperidine-4-carboxylic acid (4-ethyl-phenyl)-amide], for which the IC50 turned out to be 130 nM.

In the case of `CCc1ccc(NC(=O)C2(N)CCN(S(=O)(=O)c3ccc(F)cc3Cl)CC2)cc1` [Example 146, 4-Amino-1-(2-chloro-4-fluoro-benzenesulfonyl)-piperidine-4-carboxylic acid (4-ethyl-phenyl)-amide], the IC50 turned out to be 120 nM.

`CCc1ccc(NC(=O)C2(N)CCN(S(=O)(=O)c3ccc(C(F)(F)F)cc3Cl)CC2)cc1` [Example 147, 4-Amino-1-(2-chloro-4-trifluoromethyl-benzenesulfonyl)-piperidine-4-carboxylic acid (4-ethyl-phenyl)-amide]: the IC50 was 430 nM.

As for `CCc1ccc(NC(=O)C2(N)CCN(S(=O)(=O)c3ccc(Cl)nc3)CC2)cc1` [Example 148, 4-Amino-1-(6-chloro-pyridine-3-sulfonyl)-piperidine-4-carboxylic acid (4-ethyl-phenyl)-amide], the IC50 came out at 610 nM.

With `CCc1ccc(NC(=O)C2(N)CCN(S(=O)(=O)c3ccccc3OC(F)(F)F)CC2)cc1` [Example 149, 4-Amino-1-(2-trifluoromethoxy-benzenesulfonyl)-piperidine-4-carboxylic acid (4-ethyl-phenyl)-amide], the IC50 turned out to be 50 nM.

As to `CCc1ccc(NC(=O)C2(N)CCN(S(=O)(=O)c3c(Cl)cccc3Cl)CC2)cc1` [Example 150, 4-Amino-1-(2,6-dichloro-benzenesulfonyl)-piperidine-4-carboxylic acid (4-ethyl-phenyl)-amide], the IC50 stood at 240 nM.

With `CCc1ccc(NC(=O)C2(N)CCN(Cc3ccccc3)CC2)cc1` [Example 151, 4-Amino-1-benzyl-piperidine-4-carboxylic acid (4-ethyl-phenyl)-amide], the IC50 came out at 540 nM.

Turning to `CCc1ccc(NC(=O)C2(N)CCN(Cc3ccccc3C)CC2)cc1` [Example 152, 4-Amino-1-(2-methyl-benzyl)-piperidine-4-carboxylic acid (4-ethyl-phenyl)-amide], the IC50 is 120 nM.

Take `CCc1ccc(NC(=O)C2(N)CCN(Cc3ccccc3F)CC2)cc1` [Example 153, 4-Amino-1-(2-fluoro-benzyl)-piperidine-4-carboxylic acid (4-ethyl-phenyl)-amide]: the IC50 turned out to be 170 nM.

Turning to `CCc1ccc(NC(=O)C2(N)CCN(Cc3ccccc3Cl)CC2)cc1` [Example 154, 4-Amino-1-(2-chloro-benzyl)-piperidine-4-carboxylic acid (4-ethyl-phenyl)-amide], the IC50 was 110 nM.

Regarding `CCc1ccc(NC(=O)C2(N)CCN(Cc3ccccc3OC(F)F)CC2)cc1` [Example 155, 4-Amino-1-(2-difluoromethoxy-benzyl)-piperidine-4-carboxylic acid (4-ethyl-phenyl)-amide], the IC50 was 110 nM.

As to `CCc1ccc(NC(=O)C2(N)CCN(Cc3ccccc3OC(F)(F)F)CC2)cc1` [Example 156, 4-Amino-1-(2-trifluoromethoxy-benzyl)-piperidine-4-carboxylic acid (4-ethyl-phenyl)-amide], the concentration for half-maximal inhibition (IC50) was 80 nM.

In the case of `CCc1ccc(NC(=O)C2(N)CCN(Cc3ccccc3C(F)(F)F)CC2)cc1` [Example 157, 4-Amino-1-(2-trifluoromethyl-benzyl)-piperidine-4-carboxylic acid (4-ethyl-phenyl)-amide], the IC50 is 180 nM.

Regarding `CCc1ccc(NC(=O)C2(N)CCN(Cc3ccc(C(C)C)cc3)CC2)cc1` [Example 158, 4-Amino-1-(4-isopropyl-benzyl)-piperidine-4-carboxylic acid (4-ethyl-phenyl)-amide], the IC50 was 460 nM.

`CCc1ccc(NC(=O)C2(N)CCN(C(c3ccccc3)c3ccccc3)CC2)cc1` [Example 159, 4-Amino-1-benzhydryl-piperidine-4-carboxylic acid (4-ethyl-phenyl)-amide]: the IC50 is 150 nM.

Consider `CNC1(C(=O)Nc2ccc(OC(F)(F)F)cc2)CCN(S(=O)(=O)c2ccc(C)cc2)CC1` [Example 160, 4-Methylamino-1-(toluene-4-sulfonyl)-piperidine-4-carboxylic acid (4-trifluoromethoxy-phenyl)-amide], for which the 50% inhibitory concentration (IC50) was 100 nM.
